{
  "source": "patent US7629332B2",
  "about": "“Nitrophenyl mustard and nitrophenylaziridine alcohols and their corresponding phosphates and their use as targeted cytotoxic agents” (Auckland Uniservices Limited, priority 2003, dated 2009)",
  "key": {"WiDr (NTR+ve)": {"system": "WiDr (NTR+ve)", "experiment": "Cell proliferation (sulphorhodamine B) IC50, NTR-transfected WiDr human colon cells", "assay_type": "cell-based", "conditions": "for WiDr WT:NTR IC50 Ratio: 4 h, sensitivity ratio for NTR expression; for IC50: 4 h drug exposure, growth 5 further days"}, "A549 (P450R+ve)": {"system": "A549 (P450R+ve)", "experiment": "Cell proliferation (sulphorhodamine B) IC50, P450R-transfected A549 human lung cells, anoxia vs 20% O2", "assay_type": "cell-based", "conditions": "for A549 (P450R+ve) 20% O2/anoxia IC50 Ratio: 4 h, sensitivity ratio for hypoxia"}, "[1]": {"system": "SiHa human tumour xenografts", "experiment": "SiHa xenograft excision / clonogenic assay, with or without 15 Gy radiation", "assay_type": "in vivo", "conditions": "for Log kill, cmpd after radiation: single i.p. dose 5 min after 15 Gy, relative to radiation only; for Log kill, cmpd only, Mean ± sem: single i.p. dose, no radiation, relative to vehicle controls, excision 18 h"}, "in vivo": {"experiment": "in vivo", "conditions": "CD-1 nude, mouse, ip"}, "[2]": {"conditions": "4 h drug exposure under 0% oxygen"}, "[3]": {"conditions": "A549, 4 h drug exposure under 0% oxygen"}},
  "data": [
    {"molecule": "2-((2-Bromoethyl)-3-{[(4-Hydroxybutyl)Amino]Carbonyl}-2,4-Dinitroanilino)Ethyl Methanesulfonate [IIc-14]", "values": [
      {"measurement": "WiDr WT:NTR IC50 Ratio", "setting": "WiDr (NTR+ve)", "result": 16},
      {"measurement": "IC50", "setting": "WiDr (NTR+ve)", "result": 20, "unit": "µM"},
      {"measurement": "A549 (P450R+ve) 20% O2/anoxia IC50 Ratio", "setting": "A549 (P450R+ve)", "result": 57},
      {"measurement": "IC50", "setting": "A549 (P450R+ve); [2]", "result": 7.1, "unit": "µM"}
    ]},
    {"molecule": "O=C(NCCCCCO)c1cc([N+](=O)[O-])cc([N+](=O)[O-])c1N(CCBr)CCBr", "note": "[IIb-10, 2-[Bis(2-Bromoethyl)Amino]-N-(5-Hydroxypentyl)-3,5-Dinitrobenzamide]", "values": [
      {"measurement": "WiDr WT:NTR IC50 Ratio", "setting": "WiDr (NTR+ve)", "result": 2},
      {"measurement": "IC50", "setting": "WiDr (NTR+ve); WiDr", "result": 0.9, "unit": "µM"},
      {"measurement": "A549 (P450R+ve) 20% O2/anoxia IC50 Ratio", "setting": "A549 (P450R+ve)", "result": 11},
      {"measurement": "IC50", "setting": "A549 (P450R+ve); [3]", "result": 2.3, "unit": "µM"}
    ]},
    {"molecule": "O=C(NCCCCO)c1cc([N+](=O)[O-])cc([N+](=O)[O-])c1N(CCCl)CCCl", "note": "[IIb-4, 2-[Bis(2-Chloroethyl)Amino]-N-(4-Hydroxybutyl)-3,5-Dinitrobenzamide]", "values": [
      {"measurement": "WiDr WT:NTR IC50 Ratio", "setting": "WiDr (NTR+ve)", "result": 18},
      {"measurement": "IC50", "setting": "WiDr (NTR+ve); WiDr", "result": 14, "unit": "µM"}
    ]},
    {"molecule": "O=C(NCCCCCCO)c1cc(N(CCBr)CCBr)c([N+](=O)[O-])cc1[N+](=O)[O-]", "note": "[IIa-11, N-(6-Hydroxyhexyl)-5-[Bis(2-Bromoethyl)Amino]-2,4-Dinitrobenzamide]", "values": [
      {"measurement": "WiDr WT:NTR IC50 Ratio", "setting": "WiDr (NTR+ve)", "result": 9},
      {"measurement": "IC50", "setting": "WiDr (NTR+ve); WiDr", "result": 11, "unit": "µM"}
    ]},
    {"molecule": "2-[(2-Chloroethyl)-2,4-Dinitro-6-[[[2-(Phosphonooxy)Ethyl]amino]-Carbonyl]Anilino]Ethyl Methanesulfonate [Ib-2mP]", "values": [
      {"measurement": "Log kill, cmpd after radiation", "setting": "[1]; 20% of MTD", "result": "2.56 ± 0.37"},
      {"measurement": "Log kill, cmpd after radiation", "setting": "[1]; 75% of MTD", "result": "≧3.47 ± 0.17"},
      {"measurement": "Log kill, cmpd only, Mean ± sem", "setting": "[1]; 75% of MTD", "result": "2.47 ± 0.08"}
    ]},
    {"molecule": "2-[(2-Chloroethyl)-2,4-Dinitro-3-[[[3-(Phosphonooxy)Propyl]Amino]-Carbonyl]Anilino]Ethyl Methanesulfonate [Ic-6P]", "values": [
      {"measurement": "Log kill, cmpd after radiation", "setting": "[1]; 20% of MTD", "result": "1.64 ± 0.30"},
      {"measurement": "Log kill, cmpd after radiation", "setting": "[1]; 75% of MTD", "result": "≧2.62 ± 0.17"},
      {"measurement": "Log kill, cmpd only, Mean ± sem", "setting": "[1]; 75% of MTD", "result": "1.11 ± 0.20"}
    ]},
    {"molecule": "2-((2-Bromoethyl)-3-{[(2-Hydroxyethyl)Amino]carbonyl}-2,4-Dinitroanilino)Ethyl Methanesulfonate [IIc-12]", "values": [
      {"measurement": "WiDr WT:NTR IC50 Ratio", "setting": "WiDr (NTR+ve)", "result": 84},
      {"measurement": "IC50", "setting": "WiDr (NTR+ve)", "result": 5, "unit": "µM"},
      {"measurement": "A549 (P450R+ve) 20% O2/anoxia IC50 Ratio", "setting": "A549 (P450R+ve)", "result": 173},
      {"measurement": "IC50", "setting": "A549 (P450R+ve); [2]", "result": 2.6, "unit": "µM"}
    ]},
    {"molecule": "O=C(NCCO)c1cc(N(CCBr)CCBr)c([N+](=O)[O-])cc1[N+](=O)[O-]", "note": "[IIa-7, N-(2-Hydroxyethyl)-5-[Bis(2-Bromoethyl)Amino]-2,4-Dinitrobenzamide]", "values": [
      {"measurement": "WiDr WT:NTR IC50 Ratio", "setting": "WiDr (NTR+ve)", "result": 99},
      {"measurement": "IC50", "setting": "WiDr (NTR+ve); WiDr", "result": 1.5, "unit": "µM"},
      {"measurement": "A549 (P450R+ve) 20% O2/anoxia IC50 Ratio", "setting": "A549 (P450R+ve)", "result": 49},
      {"measurement": "IC50", "setting": "A549 (P450R+ve); [3]", "result": 6.7, "unit": "µM"}
    ]},
    {"molecule": "2-((2-Bromoethyl)-3-{[(3-Hydroxypropyl)Amino]Carbonyl}-2,4-Dinitroanilino)Ethyl Methanesulfonate [IIc-13]", "values": [
      {"measurement": "WiDr WT:NTR IC50 Ratio", "setting": "WiDr (NTR+ve)", "result": 95},
      {"measurement": "IC50", "setting": "WiDr (NTR+ve)", "result": 4.3, "unit": "µM"},
      {"measurement": "A549 (P450R+ve) 20% O2/anoxia IC50 Ratio", "setting": "A549 (P450R+ve)", "result": 134},
      {"measurement": "IC50", "setting": "A549 (P450R+ve); [2]", "result": 4.5, "unit": "µM"}
    ]},
    {"molecule": "2-[(2-Iodoethyl)-2,4-Dinitro-3-[[[3-(Phosphonooxy)Propyl]Amino]-Carbonyl]Anilino]Ethyl Methanesulfonate [Ic-15P]", "values": [
      {"measurement": "Log kill, cmpd after radiation", "setting": "[1]; 20% of MTD", "result": "1.81 ± 0.23"},
      {"measurement": "Log kill, cmpd after radiation", "setting": "[1]; 75% of MTD", "result": "2.80 ± 0.40"},
      {"measurement": "Log kill, cmpd only, Mean ± sem", "setting": "[1]; 75% of MTD", "result": "2.27 ± 0.17"}
    ]},
    {"molecule": "O=C(NCCCCO)c1c([N+](=O)[O-])ccc(N(CCBr)CCBr)c1[N+](=O)[O-]", "note": "[IIc-9, 3-[Bis(2-Bromoethyl)Amino]-N-(4-Hydroxybutyl)-2,6-Dinitrobenzamide]", "values": [
      {"measurement": "WiDr WT:NTR IC50 Ratio", "setting": "WiDr (NTR+ve)", "result": 6},
      {"measurement": "IC50", "setting": "WiDr (NTR+ve); WiDr", "result": 31, "unit": "µM"},
      {"measurement": "A549 (P450R+ve) 20% O2/anoxia IC50 Ratio", "setting": "A549 (P450R+ve)", "result": 21},
      {"measurement": "IC50", "setting": "A549 (P450R+ve); [3]", "result": 7.3, "unit": "µM"}
    ]},
    {"molecule": "O=C(NCCCCCCO)c1cc([N+](=O)[O-])cc([N+](=O)[O-])c1N(CCBr)CCBr", "note": "[IIb-11, 2-[Bis(2-Bromoethyl)Amino]-N-(6-Hydroxyhexyl)-3,5-Dinitrobenzamide]", "values": [
      {"measurement": "WiDr WT:NTR IC50 Ratio", "setting": "WiDr (NTR+ve)", "result": 2},
      {"measurement": "IC50", "setting": "WiDr (NTR+ve); WiDr", "result": 1, "unit": "µM"},
      {"measurement": "A549 (P450R+ve) 20% O2/anoxia IC50 Ratio", "setting": "A549 (P450R+ve)", "result": 4.5},
      {"measurement": "IC50", "setting": "A549 (P450R+ve); [3]", "result": 6.6, "unit": "µM"}
    ]},
    {"molecule": "O=C(NCCCO)c1c([N+](=O)[O-])ccc(N(CCBr)CCBr)c1[N+](=O)[O-]", "note": "[IIc-8, 3-[Bis(2-Bromoethyl)Amino]-N-(3-Hydroxypropyl)-2,6-Dinitrobenzamide]", "values": [
      {"measurement": "WiDr WT:NTR IC50 Ratio", "setting": "WiDr (NTR+ve)", "result": 70},
      {"measurement": "IC50", "setting": "WiDr (NTR+ve); WiDr", "result": 5, "unit": "µM"},
      {"measurement": "A549 (P450R+ve) 20% O2/anoxia IC50 Ratio", "setting": "A549 (P450R+ve)", "result": 24},
      {"measurement": "IC50", "setting": "A549 (P450R+ve); [3]", "result": 6.6, "unit": "µM"}
    ]},
    {"molecule": "O=C(O)CCCc1ccc(N(CCCl)CCCl)cc1", "note": "[Chlorambucil, reference compound]", "values": [
      {"measurement": "Activity against hypoxic cells", "setting": "[1]; 20% of respective MTDs, after radiation", "result": "lacked activity"},
      {"measurement": "Log kill, cmpd only, Mean ± sem", "setting": "[1]; 75% of MTD", "result": "0.11 ± 0.04"},
      {"measurement": "MTD", "setting": "in vivo", "result": 237, "unit": "µmol/kg"}
    ]},
    {"molecule": "2 [(2-Bromoethyl)-5-[[(3-Hydroxypropyl)Amino]Carbonyl]-2,4-Dinitroanilino]Ethyl Methanesulfonate [IIa-13]", "values": [
      {"measurement": "WiDr WT:NTR IC50 Ratio", "setting": "WiDr (NTR+ve)", "result": 90},
      {"measurement": "IC50", "setting": "WiDr (NTR+ve)", "result": 5, "unit": "µM"},
      {"measurement": "A549 (P450R+ve) 20% O2/anoxia IC50 Ratio", "setting": "A549 (P450R+ve)", "result": 18},
      {"measurement": "IC50", "setting": "A549 (P450R+ve); [2]", "result": 32, "unit": "µM"}
    ]},
    {"molecule": "2-[(2-Iodoethyl)-2,4-Dinitro-6-({[2-(Phosphonooxy)Ethyl]Amino}Carbonyl)-Anilino]Ethyl Methanesulfonate [Ib-15P]", "values": [
      {"measurement": "Log kill, cmpd after radiation", "setting": "[1]; 20% of MTD", "result": "1.74 ± 0.23"},
      {"measurement": "Log kill, cmpd after radiation", "setting": "[1]; 75% of MTD", "result": "≧3.27 ± 0.13"},
      {"measurement": "Log kill, cmpd only, Mean ± sem", "setting": "[1]; 75% of MTD", "result": "2.24 ± 0.15"}
    ]},
    {"molecule": "O=C(NCCCOP(=O)(O)O)c1c([N+](=O)[O-])ccc(N(CCBr)CCBr)c1[N+](=O)[O-]", "note": "[Ic-8P, 3-({3-[Bis(2-Bromoethyl)Amino]-2,6-Dinitrobenzoyl}Amino)Propyl Dihydrogen Phosphate]", "values": [
      {"measurement": "MTD", "setting": "in vivo", "result": 562, "unit": "µmol/kg"}
    ]}
  ]
}
